Measurements reported in ChEMBL document CHEMBL1687730, “New high-throughput screening assay to reveal similarities and differences in inhibitory sensitivities of multidrug ATP-binding cassette transporters” (Antimicrob Agents Chemother, 2009).

How the values were obtained:
[1] = target: Snq2p (Saccharomyces cerevisiae (strain Lalvin EC1118 / Prise de mousse)(Baker's yeast)) (UniProt C8Z4T0); assay: Inhibition of Saccharomyces cerevisiae MKSNQ2h multidrug transporter Snq2p assessed as concentration required to threefold increase in rate of fluorescence signal relative to absence of inhibitor by fluorescein diacetate based high-throughput screening spectrofluorometric assay
Saccharomyces cerevisiae [2] = assay: Inhibition of Saccharomyces cerevisiae MKCDR1h multidrug transporter Cdr1p assessed as concentration required to threefold increase in rate of fluorescence signal relative to absence of inhibitor by fluorescein diacetate based high-throughput screening spectrofluorometric assay
[3] = target: Pleiotropic ABC efflux transporter of multiple drugs (Saccharomyces cerevisiae S288c) (UniProt P33302); assay: Inhibition of Saccharomyces cerevisiae MKPDR5h multidrug transporter Pdr5p assessed as concentration required to threefold increase in rate of fluorescence signal relative to absence of inhibitor by fluorescein diacetate based high-throughput screening spectrofluorometric assay
[4] = target: Pleiotropic ABC efflux transporter of multiple drugs (Saccharomyces cerevisiae S288c, UniProt P33302); assay: Inhibition of Pdr5p-mediated rhodamine 6G transport in Saccharomyces cerevisiae MKPDR5h plasma membrane by spectrofluorometric assay
Saccharomyces cerevisiae [5] = assay: Inhibition of Saccharomyces cerevisiae MKCDR1h multidrug transporter Cdr1p assessed as potentiation of ketoconazole-induced antifungal activity by Checkerboard assay

Chain of Snq2p (Saccharomyces cerevisiae (strain Lalvin EC1118 / Prise de mousse)(Baker's yeast)) (C8Z4T0 as listed by the source): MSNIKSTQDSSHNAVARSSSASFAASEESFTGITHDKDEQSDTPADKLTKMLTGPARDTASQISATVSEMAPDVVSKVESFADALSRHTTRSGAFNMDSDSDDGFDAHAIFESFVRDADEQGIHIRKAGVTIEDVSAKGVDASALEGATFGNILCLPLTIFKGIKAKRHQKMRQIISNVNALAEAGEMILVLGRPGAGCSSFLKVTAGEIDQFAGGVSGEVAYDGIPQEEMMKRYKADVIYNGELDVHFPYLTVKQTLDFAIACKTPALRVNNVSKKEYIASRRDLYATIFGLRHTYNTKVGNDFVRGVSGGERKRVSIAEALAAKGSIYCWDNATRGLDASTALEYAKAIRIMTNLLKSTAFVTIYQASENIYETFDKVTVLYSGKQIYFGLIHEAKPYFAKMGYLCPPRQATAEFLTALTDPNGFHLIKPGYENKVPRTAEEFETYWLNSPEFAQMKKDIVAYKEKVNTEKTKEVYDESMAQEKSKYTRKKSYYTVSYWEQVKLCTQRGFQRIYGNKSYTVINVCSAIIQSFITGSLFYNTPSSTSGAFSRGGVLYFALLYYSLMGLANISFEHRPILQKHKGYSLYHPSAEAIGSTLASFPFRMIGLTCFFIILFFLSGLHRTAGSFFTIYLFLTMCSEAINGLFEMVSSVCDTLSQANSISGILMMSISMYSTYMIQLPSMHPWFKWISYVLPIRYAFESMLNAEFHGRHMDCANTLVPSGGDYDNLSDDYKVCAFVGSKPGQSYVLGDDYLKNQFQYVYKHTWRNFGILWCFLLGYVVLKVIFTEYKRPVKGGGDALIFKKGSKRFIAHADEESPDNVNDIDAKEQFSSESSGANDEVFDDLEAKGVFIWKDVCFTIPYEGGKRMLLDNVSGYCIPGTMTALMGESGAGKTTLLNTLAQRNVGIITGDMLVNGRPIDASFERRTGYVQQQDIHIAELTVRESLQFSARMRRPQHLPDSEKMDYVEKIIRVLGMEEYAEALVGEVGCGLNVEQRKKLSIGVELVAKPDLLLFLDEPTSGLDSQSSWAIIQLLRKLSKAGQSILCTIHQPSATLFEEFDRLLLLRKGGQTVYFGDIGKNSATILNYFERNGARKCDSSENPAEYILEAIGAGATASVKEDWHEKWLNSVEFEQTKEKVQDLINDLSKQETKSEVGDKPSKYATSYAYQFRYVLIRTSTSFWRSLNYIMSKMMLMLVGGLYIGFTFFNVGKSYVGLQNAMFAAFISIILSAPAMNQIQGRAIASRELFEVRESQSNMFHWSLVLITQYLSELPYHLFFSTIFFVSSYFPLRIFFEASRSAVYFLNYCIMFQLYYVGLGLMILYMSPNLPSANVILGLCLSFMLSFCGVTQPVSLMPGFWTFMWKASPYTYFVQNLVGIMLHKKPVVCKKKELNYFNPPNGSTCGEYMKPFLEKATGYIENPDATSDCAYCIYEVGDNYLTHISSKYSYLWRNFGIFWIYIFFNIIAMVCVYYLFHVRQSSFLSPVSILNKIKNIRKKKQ
Chain of Pleiotropic ABC efflux transporter of multiple drugs (Saccharomyces cerevisiae S288c) (P33302 whole entry): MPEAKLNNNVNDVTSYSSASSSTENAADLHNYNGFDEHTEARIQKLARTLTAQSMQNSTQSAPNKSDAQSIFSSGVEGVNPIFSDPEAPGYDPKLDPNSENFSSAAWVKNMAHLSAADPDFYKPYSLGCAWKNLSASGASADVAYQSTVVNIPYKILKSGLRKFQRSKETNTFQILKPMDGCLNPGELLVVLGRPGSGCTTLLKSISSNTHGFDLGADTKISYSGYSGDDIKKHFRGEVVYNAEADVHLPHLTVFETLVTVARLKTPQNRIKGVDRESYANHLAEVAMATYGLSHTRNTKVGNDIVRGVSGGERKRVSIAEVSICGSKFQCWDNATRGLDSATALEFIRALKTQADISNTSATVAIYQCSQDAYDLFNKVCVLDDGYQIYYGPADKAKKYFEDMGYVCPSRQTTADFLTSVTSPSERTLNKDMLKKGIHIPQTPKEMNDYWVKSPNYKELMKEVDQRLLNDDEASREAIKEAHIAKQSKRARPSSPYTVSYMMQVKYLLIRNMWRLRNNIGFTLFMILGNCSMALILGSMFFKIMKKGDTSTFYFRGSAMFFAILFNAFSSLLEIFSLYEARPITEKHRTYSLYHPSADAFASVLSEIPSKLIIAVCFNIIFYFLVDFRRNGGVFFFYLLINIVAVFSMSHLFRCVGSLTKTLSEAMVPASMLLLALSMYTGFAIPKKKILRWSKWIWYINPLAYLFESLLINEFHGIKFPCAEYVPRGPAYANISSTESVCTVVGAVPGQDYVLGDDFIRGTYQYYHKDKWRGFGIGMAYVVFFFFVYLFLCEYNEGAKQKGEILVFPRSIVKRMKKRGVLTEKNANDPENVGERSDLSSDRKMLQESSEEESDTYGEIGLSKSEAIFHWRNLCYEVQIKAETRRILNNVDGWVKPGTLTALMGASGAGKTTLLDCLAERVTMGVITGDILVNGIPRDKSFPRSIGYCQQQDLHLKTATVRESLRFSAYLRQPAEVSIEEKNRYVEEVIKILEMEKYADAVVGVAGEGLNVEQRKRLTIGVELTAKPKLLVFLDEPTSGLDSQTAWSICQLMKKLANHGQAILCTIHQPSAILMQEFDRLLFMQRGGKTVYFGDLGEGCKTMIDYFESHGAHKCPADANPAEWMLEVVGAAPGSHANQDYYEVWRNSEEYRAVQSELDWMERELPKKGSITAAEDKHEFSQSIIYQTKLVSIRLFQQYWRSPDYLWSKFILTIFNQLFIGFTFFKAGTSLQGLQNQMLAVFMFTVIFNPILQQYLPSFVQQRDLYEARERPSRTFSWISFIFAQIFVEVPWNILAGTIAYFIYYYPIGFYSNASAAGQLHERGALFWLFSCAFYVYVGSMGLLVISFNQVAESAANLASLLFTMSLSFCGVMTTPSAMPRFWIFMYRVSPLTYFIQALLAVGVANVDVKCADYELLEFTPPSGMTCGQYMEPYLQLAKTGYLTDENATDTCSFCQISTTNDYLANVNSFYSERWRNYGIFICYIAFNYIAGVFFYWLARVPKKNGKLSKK
Chain of Pleiotropic ABC efflux transporter of multiple drugs (P33302 whole entry): as above

Compound | INH [1] [µM] | INH (Saccharomyces cerevisiae [2]) [µM] | INH [3] [µM] | IC50 [4] [µM] | fractional inhibitory concentration index (FICI) (Saccharomyces cerevisiae [5])
COc1ccc2c(c1)N(C[C@@H](C)CN(C)C)c1ccccc1S2 [DEXTROMEPROMAZINE] | 100 | 273 | 101 | 9 | –
CN(C)CC/C=C1/c2ccccc2Sc2ccc(Cl)cc21 [CHLORPROTHIXENE] | 22 | 53 | 26 | 5.1 | –
CSc1ccc2c(c1)N(CCC1CCCCN1C)c1ccccc1S2 (stereo not drawn) | 19.4 | 26 | 17 | – | –
OCCN1CCN(CCCN2c3ccccc3Sc3ccc(Cl)cc32)CC1 [PERPHENAZINE] | 13.1 | 17.2 | 6.4 | 1.4 | –
CN(C)CCCN1c2ccccc2Sc2ccccc21 [PROMAZINE] | 131 | 278 | 96 | 11.3 | –
CN1CCN(CCCN2c3ccccc3Sc3ccc(C(F)(F)F)cc32)CC1 [TRIFLUOPERAZINE] | 6.9 | 9.8 | 8.3 | 1.4 | –
OCCN1CCN(CCCN2c3ccccc3Sc3ccc(C(F)(F)F)cc32)CC1 [FLUPHENAZINE] | 8.8 | 12.4 | 5.4 | 1.7 | 0.09
CN(C)CCCN1c2ccccc2CCc2ccccc21 [IMIPRAMINE] | 198 | > 433 | 166 | 22 | –
CCSc1ccc2c(c1)N(CCCN1CCN(C)CC1)c1ccccc1S2 [THIETHYLPERAZINE] | 3.2 | 9.4 | 5.6 | 2.3 | –
CN(C)CCCN1c2ccccc2Sc2ccc(Cl)cc21 [CHLORPROMAZINE] | 32 | 57 | 57 | 4.5 | –
CCN(CC)CCN1c2ccccc2Sc2ccccc21 [DIETHAZINE] | 239 | 317 | 331 | 10.3 | –
NCCCN1c2ccccc2Sc2ccc(C(F)(F)F)cc21 | 6.9 | 6.5 | 7.7 | 6.4 | –
c1ccc2c(c1)Nc1ccccc1S2 [PHENOTHIAZINE] | 90 | > 433 | > 433 | > 400 | –
NCCCCN1c2ccccc2Sc2ccc(Cl)cc21 | 2.1 | 1.9 | 1.9 | 0.7 | 0.06
CC(CN1c2ccccc2Sc2ccccc21)N(C)C (stereo not drawn) [PROMETHAZINE] | 117 | 275 | 285 | 17.7 | –
NCCCN1c2ccccc2Sc2ccc(Cl)cc21 [NOR2-CHLORPROMAZINE] | 5.8 | 4.3 | 4.2 | 3.2 | –
O=C(O)CCCCCCNC1c2ccccc2CCc2ccccc21 [AMINEPTINE] | > 433 | > 433 | > 433 | > 400 | –
CN1CCN(CCCN2c3ccccc3Sc3ccc(Cl)cc32)CC1 [PROCHLORPERAZINE] | 6.6 | 11 | 7.2 | 1.7 | –
COc1ccc2c(c1)N(C[C@H](C)CN(C)C)c1ccccc1S2 [LEVOMEPROMAZINE] | 100 | 252 | 128 | 9.6 | –
NCCCCN1c2ccccc2Sc2ccc(C(F)(F)F)cc21 | 4.6 | 4.6 | 3.7 | 1.3 | –
NCCCCN1c2ccccc2Sc2ccccc21 | 13.5 | 29 | 7 | 3.1 | –
CN(C)CCCN1c2ccccc2Sc2ccc(C(F)(F)F)cc21 [TRIFLUPROMAZINE] | 47 | 49 | 47 | 4.9 | –
NCCCN1c2ccccc2Sc2ccccc21 | 12.4 | 36 | 14.7 | 7.4 | –
